Test results from PubChem BioAssay AID1963444 (Molecular Pharmacology Branch, DTP, NCI, 2024).

System: HSSY-II complex spheroid growth, percent test/control
Experiment: Anticancer human tumor HSSY-II cell line growth inhibition [Asc];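 also: spheroids exposed to drug for 7 days before reading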
Conditions: for IC50: curve of first compound; for viability, T/C: stronger effect = lower value
Experimental: Multicellular complex tumor spheroid response to apoptosis pathway targeting inhibitors Alrizomadlin, Pelcitoclax, and Dasminapant in combination with a variety of drugs and investigational agents in selected tumor cell lines
The MDM2 inhibitor alrizomadlin, the Bcl-2/Bcl-xL inhibitor pelcitoclax, and the IAPs inhibitor dasminapant were evaluated both individually and in combination with standard of care and investigational anticancer small molecules within a complex spheroid model of solid tumors. . Complex spheroids include a stromal component modeled by human endothelial cells (HUVEC) and fibroblasts modeled by human mesenchymal stem cells (MSCs). The concentration ranges selected for each drug and investigational agent were based upon clinically achievable concentrations if the clinical Cmax of the agent was known.
Compounds. The drugs and investigational agents: alrizomadlin (APG-115; NSC831270), pelcitoclax (APG-1252; NSC835773), dasminapant (APG-1387;NSC834197), TAK-243 (NSC785004), copanlisib (NSC809693), olaparib (NSC753686), talazoparib (NSC767125), cobimetinib (NSC 768068), eltanexor (KPT-8602, NSC 794443), abemaciclib (NSC 768073), sotorasib (NSC818433), adagrasib (NSC 831453), MRTX-1133 (NSC 836407), Iadademestat (ORY1001, NSC 806812), and RMC-4630 (NSC839698), were obtained from the NCI Developmental Therapeutics Program Chemical Repository. The FDA-approved anticancer drug set is available from the Developmental Therapeutics Program at https://dtp.cancer.gov/organization/dscb/obtaining/available plates.htm. […] The stock solutions were prepared in dimethyl sulfoxide (DMSO, Sigma-Aldrich, St. Louis, MO, cat. D2650) at 800-fold the tested concentration and stored at -70 degrees C prior to their use. All drugs and investigational agents were tested over a range starting from a high concentration at or near the clinical Cmax and decreasing in half-log increments. If the clinical Cmax for an agent had not been determined, the highest concentration tested was 10 microM.
The patient-derived cancer (PDC) cell lines include five colon adenocarcinomas: 186277-243-T-J2-PDC, 616215-338-R-J1-PDC, 439559-082-T-J2-PDC, 463943-066-T-J2-PDC, and 519858-162-T-J1-PDC; three pancreatic carcinomas: 323965-272-R-J2-PDC, 521955-158-R6-J3-PDC, and 521955-158-R2-J5-PDC; two uterine sarcomas: 327498-152-R-J2-PDC and 993429-296-R-J1-PDC; two rhabdomyosarcomas: 755483-174-R-J1-PDC and 772245-204-R-J1-PDC; two soft tissue sarcomas: 126254-015-R-J1-PDC and 494315-158-R-J1-PDC; two malignant fibrous histiocytomas: 317291-083-R-J1-PDC and 596521-263-R-J1-PDC; two breast carcinomas: 171881-019-R-J1-PDC and 885512-296-R-J2-PDC; and one ovarian carcinoma: 6556581-035-R-J-PDC were obtained from the NCI PDMR, (https://pdmr.cancer.gov). The established cell lines HSSY-2 synovial sarcoma (RRID:CVCL 8719), SYO-1 synovial sarcoma (RRID:CVCL_7146), MPNST malignant peripheral neural sheath tumor were obtained from the Sloan Kettering Institute. The following established cell lines were purchased from the American Type Culture Collection (ATCC, Manassas, VA), Sor the received from the NCI repository:, PANC-1 pancreatic carcinoma (CRL-1469, RRID:CVCL_0480), OVCAR-5 ovarian carcinoma (RRID:CVCL_1628), OVCAR-8 ovarian carcinoma (RRID:CVCL_1629), , MCF-7 breast carcinoma (CRL-12584, RRID:CVCL_0031), MDA-MB-231 breast carcinoma (CRL-12532, RRID:CVCL_0062), NCI-H1876 small cell lung carcinoma (CRL-5902, RRID:CVCL_1503), NCI-H510A small cell lung carcinoma (HTB-184, RRID:CVCL_1565), NCI-H1417 (CRL-5869, RRID:CVCL_1469), and NCI-H196 small cell lung carcinoma (CRL-5823, RRID:CVCL_1509). Dr. Peter Houghton (Greehey Children's Cancer Research Institute, University of Texas Health Science Center, San Antonio, TX) provided Rh-18 rhabdomyosarcoma (RRID:CVCL_1659). Pooled donor human umbilical vein endothelial cells (HUVEC, Lonza, cat. CC-2519) and human mesenchymal stem cells (hMSC, Lonza, cat. PT-2501) were purchased from Lonza (Walkersville, MD).
Cell Culture. […]

[1] = second compound 0.03 µM, first compound 0.00316 µM
[2] = second compound 0.03 µM, first compound 0.01 µM
[3] = second compound 0.03 µM, first compound 0.0316 µM
[4] = second compound 0.03 µM, first compound 0.1 µM
[5] = second compound 0.0949 µM, first compound 0.00316 µM
[6] = second compound 0.0949 µM, first compound 0.01 µM
[7] = second compound 0.0949 µM, first compound 0.0316 µM
[8] = second compound 0.0949 µM, first compound 0.1 µM
[9] = second compound 0.3 µM, first compound 0.00316 µM
[10] = second compound 0.3 µM, first compound 0.01 µM
[11] = second compound 0.3 µM, first compound 0.0316 µM
[12] = second compound 0.3 µM, first compound 0.1 µM
[13] = second compound 0.949 µM, first compound 0.00316 µM
[14] = second compound 0.949 µM, first compound 0.01 µM
[15] = second compound 0.949 µM, first compound 0.0316 µM
[16] = second compound 0.949 µM, first compound 0.1 µM
[17] = second compound 3 µM, first compound 0.00316 µM
[18] = second compound 3 µM, first compound 0.01 µM
[19] = second compound 3 µM, first compound 0.0316 µM
[20] = second compound 3 µM, first compound 0.1 µM
[21] = second compound 0.03 µM, first compound 0.316 µM
[22] = second compound 0.03 µM, first compound 1 µM
[23] = second compound 0.0949 µM, first compound 0.316 µM
[24] = second compound 0.0949 µM, first compound 1 µM
[25] = second compound 0.3 µM, first compound 0.316 µM
[26] = second compound 0.3 µM, first compound 1 µM
[27] = second compound 0.949 µM, first compound 0.316 µM
[28] = second compound 0.949 µM, first compound 1 µM
[29] = second compound 3 µM, first compound 0.316 µM
[30] = second compound 3 µM, first compound 1 µM

Compound | IC50 (second compound 0.03 µM) [nM] | IC50 (second compound 0.0949 µM) [nM] | IC50 (second compound 0.3 µM) [nM] | IC50 (second compound 0.949 µM) [nM] | IC50 (second compound 3 µM) [nM] | viability, T/C [1] [%] | viability, T/C [2] [%] | viability, T/C [3] [%] | viability, T/C [4] [%] | viability, T/C [5] [%] | viability, T/C [6] [%] | viability, T/C [7] [%] | viability, T/C [8] [%] | viability, T/C [9] [%] | viability, T/C [11] [%] | viability, T/C [12] [%] | viability, T/C [15] [%] | viability, T/C [16] [%] | viability, T/C [19] [%] | viability, T/C [20] [%] | further results
Cn1ncnc1[C@H]1c2n[nH]c(=O)c3cc(F)cc(c23)N[C@@H]1c1ccc(F)cc1 + CCN1C(C(=O)NC23CCC(C(=O)O)(CC2)CC3)C(c2cccc(Cl)c2F)C2(C(=O)Nc3cc(Cl)ccc32)C12CCCCC2 | 10.7 | 2.01 | < 0.316 | < 0.316 | < 0.316 | 68.1 | 52.8 | 31.4 | 19.6 | 47.1 | 31 | 15.4 | 10.2 | 18.2 | 6.69 | 5.88 | 6.11 | 6.09 | 1.88 | 4.41 | viability, T/C (second compound 0.03 µM, first compound 0.000316 µM): 91.9%; viability, T/C (second compound 0.03 µM, first compound 0.001 µM): 89.6%; viability, T/C (second compound 0.0949 µM, first compound 0.000316 µM): 61.4%; viability, T/C (second compound 0.0949 µM, first compound 0.001 µM): 53.6%; viability, T/C (second compound 0.3 µM, first compound 0.000316 µM): 28.5%; viability, T/C (second compound 0.3 µM, first compound 0.001 µM): 28.6%; viability, T/C [10]: 10.4%; viability, T/C (second compound 0.949 µM, first compound 0.000316 µM): 8.57%; viability, T/C (second compound 0.949 µM, first compound 0.001 µM): 7.9%; viability, T/C [13]: 7.26%; viability, T/C [14]: 5.4%; viability, T/C (second compound 3 µM, first compound 0.000316 µM): 2.41%; viability, T/C (second compound 3 µM, first compound 0.001 µM): 2.9%; viability, T/C [17]: 4.02%; viability, T/C [18]: 2.59%
O=C(c1cc(Cc2n[nH]c(=O)c3ccccc23)ccc1F)N1CCN(C(=O)C2CC2)CC1 + CCN1C(C(=O)NC23CCC(C(=O)O)(CC2)CC3)C(c2cccc(Cl)c2F)C2(C(=O)Nc3cc(Cl)ccc32)C12CCCCC2 | 1760 | 196 | < 31.6 | < 31.6 | < 31.6 | – | – | 81.5 | 75.1 | – | – | 52.9 | 52.4 | – | 23.5 | 20.9 | 6.91 | 7.91 | 3.25 | 2.79 | viability, T/C [21]: 84.5%; viability, T/C [22]: 63.6%; viability, T/C (second compound 0.03 µM, first compound 3.16 µM): 34.5%; viability, T/C (second compound 0.03 µM, first compound 10 µM): 14.1%; viability, T/C [23]: 47.2%; viability, T/C [24]: 38.5%; viability, T/C (second compound 0.0949 µM, first compound 3.16 µM): 18.7%; viability, T/C (second compound 0.0949 µM, first compound 10 µM): 9.39%; viability, T/C [25]: 18.3%; viability, T/C [26]: 15.5%; viability, T/C (second compound 0.3 µM, first compound 3.16 µM): 9.8%; viability, T/C (second compound 0.3 µM, first compound 10 µM): 6.14%; viability, T/C [27]: 6.69%; viability, T/C [28]: 7.17%; viability, T/C (second compound 0.949 µM, first compound 3.16 µM): 6.79%; viability, T/C (second compound 0.949 µM, first compound 10 µM): 5.66%; viability, T/C [29]: 3.26%; viability, T/C [30]: 2.73%; viability, T/C (second compound 3 µM, first compound 3.16 µM): 2.56%; viability, T/C (second compound 3 µM, first compound 10 µM): 3.28%
O=C(c1ccc(F)c(F)c1Nc1ccc(I)cc1F)N1CC(O)([C@@H]2CCCCN2)C1 + CCN1C(C(=O)NC23CCC(C(=O)O)(CC2)CC3)C(c2cccc(Cl)c2F)C2(C(=O)Nc3cc(Cl)ccc32)C12CCCCC2 | 485 | 186 | < 3.16 | < 3.16 | < 3.16 | 101 | 96.6 | 77.7 | 98.5 | 66.7 | 70.8 | 67.9 | 59.9 | 30.3 | 34.2 | 28.1 | 7.24 | 6.73 | 2.09 | 2.02 | viability, T/C [21]: 66.7%; viability, T/C [22]: 21.7%; viability, T/C [23]: 41.2%; viability, T/C [24]: 15.8%; viability, T/C [10]: 25.7%; viability, T/C [25]: 24.2%; viability, T/C [26]: 7.55%; viability, T/C [13]: 6.94%; viability, T/C [14]: 9.74%; viability, T/C [27]: 5.75%; viability, T/C [28]: 2.34%; viability, T/C [17]: 2.22%; viability, T/C [18]: 2.17%; viability, T/C [29]: 1.16%; viability, T/C [30]: 0.62%
